Measurements reported in patent US9062028B2, “Bicyclic nitrogen containing heteroaryl TGR5 receptor modulators” (Bristol-Myers Squibb Company, priority 2011, dated 2015).
Where a name gives a salt, the structure may show the parent alone.

Target: T1, recombinant human TGR5 (Homo sapiens, UniProt Q8TDU6)
T1 construct: expressed in transfected cells
T1 sequence (Q8TDU6 1-330): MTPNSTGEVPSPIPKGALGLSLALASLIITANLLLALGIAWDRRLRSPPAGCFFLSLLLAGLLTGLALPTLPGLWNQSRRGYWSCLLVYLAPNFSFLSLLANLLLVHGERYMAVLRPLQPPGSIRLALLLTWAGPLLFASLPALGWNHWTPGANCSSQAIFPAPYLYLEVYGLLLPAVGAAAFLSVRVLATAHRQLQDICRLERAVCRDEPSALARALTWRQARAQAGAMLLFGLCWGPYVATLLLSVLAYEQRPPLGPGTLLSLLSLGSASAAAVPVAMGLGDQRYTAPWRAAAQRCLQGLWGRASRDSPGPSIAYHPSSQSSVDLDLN
Assay: cAMP assay (cAMP accumulation, HTRF) in CHOK1 cells stably expressing TGR5
Format: cell-based
Conditions: CHOK1 cells stably expressing human TGR5, 30 minutes at RT, 1% DMSO
Protocol: The in vitro modulation of recombinant human TGR5 was determined as follows.
A human TGR5 expression construct of human TGR5 was integrated into the genome of a CHOK1 cell line (Invitrogen). Once a stable CHOK1 cell line was generated, the cells were incubated for 5-10 minutes in culture medium consisting of F-12 (Invitrogen#11765-047) supplemented with 10% fetal bovine serum.
On the day of the cAMP accumulation assay, cells stably expressing the […] TGR5 construct were centrifuged at 1000 rpm for 5 minutes. The medium was aspirated and the cells were resuspended in 5 mL of assay buffer (phosphate-buffered saline with Ca^2+ and Mg^2+, Invitrogen#14040). The cells were counted using 1:2 dilution and then adjusted to 0.4-0.5×10^6 cells/mL in assay buffer, if necessary. Isobutylmethylxanthine (IBMX, Sigma#I5879) was added via a 1:5000 dilution to make a 0.1 mM final concentration and then 10 μL of the media were transferred to each well of a 384 well poly-D-lysine coated solid white plate (BD #35-6661) pre-dotted with 100 nL of with the desired concentration of compound added from a concentrated stock dissolved in dimethyl sulfoxide (DMSO) to give a final concentration of 1% DMSO in the assay. The plates were covered and incubated for 30 minutes at RT. cAMP accumulation was measured using the CisBio homogeneous time resolved fluorescence (HTRF) assay kit (#62AM2PEC) following the manufacturer's protocol. Briefly, 5 μl each of the cAMP-HTRF fluorescence detection reagents were added to each well, and the samples were incubated for at least one hour at room temperature. Fluorescence was excited at 320 nm and measured at 665 and 620 nm using the Envision instrument (Perkin Elmer), the fluorescence ratio of 665/620 was calculated and converted to nanomolar concentrations of cAMP in each well by interpolation from a cAMP standard curve. The concentration-response curves and EC50 values were calculated with a four parameter logistic curve fit equation utilizing Excel/XLfit software (Microsoft and IDBS). The EC50 value was calculated as the concentration of agonist which increased the cAMP concentration to a value halfway between the baseline and the maximum.

SMILES | EC50 [nM]
Cc1cccc(OCCCC(=O)N2CCCc3c(-c4cnn(C(C)c5cccc(NC(=O)NCCS(=O)(=O)O)c5)c4)cccc32)c1C (stereo not drawn) [Example 82, 2-(3-(3-(1-(4-(1-(4-(2,3-Dimethylphenoxy)butanoyl)-1,2,3,4-tetrahydroquinolin-5-yl)-1H-pyrazol-1-yl)ethyl)phenyl)ureido)ethanesulfonic acid] | 646
CCOC(=O)CN(CC(=O)OCC)C(=O)c1cccc(Cn2cc(-c3cccc4c3[C@H]3C[C@H]3CN4C(=O)CCCOc3cccc(Cl)c3C)cn2)c1 [Example 896, Diethyl 2,2′-(3-((4-((1aR,7bS)-3-(4-(3-chloro-2-methylphenoxy)butanoyl)-1a,2,3,7b-tetrahydro-1H-cyclopropa[c]quinolin-7-yl)-1H-pyrazol-1-yl)methyl)benzoylazanediyl)diacetate] | 198
Cc1cccc(OCCCC(=O)N2CC3CC3c3c(-c4cnn(Cc5c(F)cc(C(=O)NCCC(=O)O)cc5Cl)c4)cccc32)c1C (stereo not drawn) [Example 69E, 3-(3-Chloro-4-((4-(3-(4-(2,3-dimethylphenoxy)butanoyl)-1a,2,3,7b-tetrahydro-1H-cyclopropa[c]quinolin-7-yl)-1H-pyrazol-1-yl)methyl)-5-fluorobenzamido)propanoic acid] | 45
Cc1cccc(OCCCC(=O)N2CCCc3c(-c4cnn(Cc5cccc(C(=O)N(C)CCS(=O)(=O)O)c5)c4)cccc32)c1C [Example 829, 2-(3-((4-(1-(4-(2,3-Dimethylphenoxy)butanoyl)-1,2,3,4-tetrahydroquinolin-5-yl)-1H-pyrazol-1-yl)methyl)-N-methylbenzamido)ethanesulfonic acid] | 1350
Cc1c(Cl)cccc1OCCOC(=O)N1CC(O)COc2c(-c3cnn(Cc4c(F)cc(C(=O)O)cc4Cl)c3)cccc21 (stereo not drawn) [Example 334, 3-Chloro-4-((4-(5-((2-(3-chloro-2-methylphenoxy)ethoxy)carbonyl)-3-hydroxy-2,3,4,5-tetrahydrobenzo[b][1,4]oxazepin-9-yl)-1H-pyrazol-1-yl)methyl)-5-fluorobenzoic acid] | 1260
Cc1c(Cl)cccc1OCCOC(=O)N1C[C@@H]2C[C@@H]2c2c(-c3cnn(Cc4cc(C(=O)N5C[C@@H](O)C[C@H]5C(=O)O)ccc4Cl)c3)cccc21 [Example 693, (2S,4S)-1-(4-Chloro-3-((4-((1aR,7bS)-3-((2-(3-chloro-2-methylphenoxy)ethoxy)carbonyl)-1a,2,3,7b-tetrahydro-1H-cyclopropa[c]quinolin-7-yl)-1H-pyrazol-1-yl)methyl)benzoyl)-4-hydroxypyrrolidine-2-carboxylic acid] | 188
Cc1c(Cl)cccc1OCCCC(=O)N1CCCOc2c(-c3cnn(Cc4c(F)cc(C(=O)NCC[N+](C)(C)C)cc4F)c3)cccc21 [Example 724, 2-(4-((4-(5-(4-(3-Chloro-2-methylphenoxy)butanoyl)-2,3,4,5-tetrahydrobenzo[b][1,4]oxazepin-9-yl)-1H-pyrazol-1-yl)methyl)-3,5-difluorobenzamido)-N,N,N-trimethylethanaminium, TFA salt] | 1300
Cc1cccc(OCCCC(=O)N2CCCc3c(-c4cccc(COC(=O)NC(Cc5c[nH]cn5)C(=O)O)c4)cccc32)c1C (stereo not drawn) [Example 283, 2-((3-(1-(4-(2,3-Dimethylphenoxy)butanoyl)-1,2,3,4-tetrahydroquinolin-5-yl)benzyloxy)carbonylamino)-3-(1H-imidazol-4-yl)propanoic acid] | 3180
Cc1c(Cl)cccc1OCCCC(=O)N1CCCOc2c(-c3cnn(Cc4cccc(NS(=O)(=O)c5cccc(C(=O)O)c5)c4)c3)cccc21 [Example 506, 3-(N-(3-((4-(5-(4-(3-Chloro-2-methylphenoxy)butanoyl)-2,3,4,5-tetrahydrobenzo [b][1,4]oxazepin-9-yl)-1H-pyrazol-1-yl)methyl)phenyl)sulfamoyl) benzoic acid] | 1610
Cc1cccc(OCCCC(=O)N2CCCc3c(-c4csc(COC(=O)NCCC(=O)O)n4)cccc32)c1C [Example 46, 3-(((4-(1-(4-(2,3-Dimethylphenoxy)butanoyl)-1,2,3,4-tetrahydroquinolin-5-yl)thiazol-2-yl)methoxy)carbonylamino)propanoic acid] | 1920

Next, values leading:

EC50 [nM] | SMILES
27 | CCOC(=O)CNC(=O)c1cccc(Cn2cc(-c3cccc4c3[C@H]3C[C@H]3CN4C(=O)CCCOc3cccc(Cl)c3C)cn2)c1 [Example 924B, Ethyl 2-(3-((4-((1aR,7bS)-3-(4-(3-chloro-2-methylphenoxy)butanoyl)-1a,2,3,7b-tetrahydro-1H-cyclopropa[c]quinolin-7-yl)-1H-pyrazol-1-yl)methyl)benzamido)acetate]
586 | Cc1c(OCCCC(=O)N2CCCc3c(-c4cnn(Cc5cccc(C(=O)O)c5)c4)cccc32)cccc1C(F)(F)F [Example 32, 3-((4-(1-(4-(2-Methyl-3-(trifluoromethyl)phenoxy)butanoyl)-1,2,3,4-tetrahydroquinolin-5-yl)-1H-pyrazol-1-yl)methyl)benzoic acid]
670 | Cc1cccc(OCCCC(=O)N2CCCc3c(-c4cnn(C(C)c5cccc(NC(=O)NCS(=O)(=O)O)c5)c4)cccc32)c1C (stereo not drawn) [Example 81, (3-(3-(1-(4-(1-(4-(2,3-Dimethylphenoxy)butanoyl)-1,2,3,4-tetrahydroquinolin-5-yl)-1H-pyrazol-1-yl)ethyl)phenyl)ureido)methanesulfonic acid]
38 | Cc1c(Cl)cccc1OCCCC(=O)N1C[C@@H]2C[C@@H]2c2c(-c3cnn(Cc4cccc(N)c4)c3)cccc21 [Example 924A, 1-((1aR,7bS)-7-(1-(3-Aminobenzyl)-1H-pyrazol-4-yl)-1a,2-dihydro-1H-cyclopropa[c]quinolin-3(7bH)-yl)-4-(3-chloro-2-methylphenoxy)butan-1-one, TFA salt]
43 | Cc1c(Cl)cccc1OCCCC(=O)N1CCSc2c(-c3cnn(Cc4c(F)cc(C(=O)O)cc4Cl)c3)cccc21 [Example 358, 3-Chloro-4-((4-(4-(4-(3-chloro-2-methylphenoxy)butanoyl)-3,4-dihydro-2H-benzo[b][1,4]thiazin-8-yl)-1H-pyrazol-1-yl)methyl)-5-fluorobenzoic acid]
48 | Cc1c(Cl)cccc1OCCCC(=O)N1CCSc2c(-c3cnn(Cc4cccc(C(=O)NCS(=O)(=O)O)c4)c3)cccc21 [Example 565, (3-((4-(4-(4-(3-Chloro-2-methylphenoxy)butanoyl)-3,4-dihydro-2H-benzo[b][1,4]thiazin-8-yl)-1H-pyrazol-1-yl)methyl)benzamido) methanesulfonic acid]
2860 | Cc1cccc(OCCOC(=O)N2CCOc3c(-c4cnn(Cc5ccc(C(=O)O)cc5)c4)cccc32)c1C [Example 28, 4-((4-(4-((2-(2,3-Dimethylphenoxy)ethoxy)carbonyl)-3,4-dihydro-2H-benzo[b][1,4]oxazin-8-yl)-1H-pyrazol-1-yl)methyl)benzoic acid]
200 | Cc1c(Cl)cccc1OCCCC(=O)N1Cc2ccccc2Oc2c(-c3cnn(Cc4c(F)cc(C(=O)NCCC(=O)O)cc4Cl)c3)cccc21 [Example 784, 3-(3-Chloro-4-((4-(10-(4-(3-chloro-2-methylphenoxy)butanoyl)-10,11-dihydrodibenzo[b,f][1,4]oxazepine-6-yl)-1H-pyrazol-1-yl)methyl)-5-fluorobenzamido)propanoic acid]
192 | Cc1c(Cl)cccc1OCCCC(=O)N1CCCc2c(-c3cnn(Cc4cccc(NC(=O)N[C@H](CCC(=O)O)C(=O)O)c4)c3)cccc21 [Example 534, (R)-2-(3-(3-((4-(1-(4-(3-Chloro-2-methylphenoxy)butanoyl)-1,2,3,4-tetra-hydroquinolin-5-yl)-1H-pyrazol-1-yl)methyl)phenyl)ureido) pentanedioic acid]
1270 | Cc1cccc(OCCCC(=O)N2CCCc3c(-c4ccc(OCc5cccc(C(=O)O)c5)cn4)cccc32)c1C [Example 123, 3-((6-(1-(4-(2,3-Dimethylphenoxy)butanoyl)-1,2,3,4-tetrahydroquinolin-5-yl)pyridin-3-yloxy)methyl)benzoic acid]
189 | Cc1cccc(OCCCC(=O)N2CCCOc3c(-c4cnn(Cc5c(F)cc(C(=O)O)cc5Cl)c4)cccc32)c1C [Example 392, 3-Chloro-4-((4-(5-(4-(2,3-dimethylphenoxy)butanoyl)-2,3,4,5-tetrahydrobcnzo[b] [1,4]oxazepin-9-yl)-1H-pyrazol-1-yl)methyl)-5-fluorobenzoic acid]
